Assay results published in US20230192660A1 (priority 2020, published 2023).

target: SARS-CoV-2 Mpro C145A mutant (Severe acute respiratory syndrome coronavirus 2, UniProt P0DTD1, C3408A); format: binding

Compound | ΔTm Mpro C145A
CNC(=O)C(=O)[C@H](C[C@@H]1CCNC1=O)NC(=O)[C@@H]1[C@@H]2[C@H](CN1C(=O)[C@@H](NC(=O)C13CC(C1)C3)C(C)(C)C)C2(C)C [ML1002m] | 0.1 °C
COc1cccc2[nH]c(C(=O)N3C[C@H]4[C@@H]([C@H]3C(=O)N[C@@H](C[C@@H]3CCNC3=O)C(=O)C(N)=O)C4(C)C)cc12 [ML105] | 0 °C
CNC(=O)C(=O)[C@H](C[C@@H]1CCNC1=O)NC(=O)[C@@H]1[C@@H]2[C@H](CN1C(=O)CNc1c(F)cc(F)cc1F)C2(C)C [ML104m] | 0 °C
CNC(=O)C(=O)[C@H](C[C@@H]1CCNC1=O)NC(=O)[C@@H]1[C@@H]2[C@H](CN1C(=O)CCc1ccccc1)C2(C)C [ML102m] | 0 °C
CC1(C)[C@@H]2[C@@H](C(=O)N[C@@H](C[C@@H]3CCNC3=O)C(=O)C(N)=O)N(C(=O)CCc3ccccc3)C[C@@H]21 [ML102] | 0 °C
CC(C)(C)[C@H](NC(=O)C12CC(C1)C2)C(=O)N1C[C@H]2[C@@H]([C@H]1C(=O)N[C@@H](C[C@@H]1CCNC1=O)C(=O)C(N)=O)C2(C)C [ML1002] | 0.1 °C
CC1(C)[C@@H]2[C@@H](C(=O)NC(C[C@@H]3CCNC3=O)C(=O)C(N)=O)N(C(=O)CNc3c(F)cc(F)cc3F)C[C@@H]21 (stereo partly shown) [ML104] | 0 °C
